Experimental data reported in ChEMBL document CHEMBL4616690, “Assembling Pharma Resources to Tackle Diseases of Underserved Populations” (ACS Med Chem Lett, 2020).

Tests used:
Wolbachia [1] = experiment: Potency index, ratio IC50 for doxycycline to IC50 for compound for antibacterial activity against Wolbachia infected in insect cells; type: functional
Wolbachia [2] = experiment: Antibacterial activity against Wolbachia infected in insect cells; type: functional, organism-based
Wolbachia [3] = experiment: Potency index, ratio IC50 for TylA to IC50 for compound for antibacterial activity against Wolbachia infected in insect cells; type: functional

SMILES: CC[C@H]1OC(=O)C[C@@H](O)[C@H](C)[C@@H](O[C@@H]2O[C@H](C)[C@@H](O[C@H]3C[C@@](C)(O)[C@@H](OCc4ccc(F)cc4)[C@H](C)O3)[C@H](N(C)C)[C@H]2O)[C@@H](CC=O)C[C@@H](C)C(=O)/C=C/C(C)=C/[C@@H]1CO[C@@H]1O[C@H](C)[C@@H](O)[C@@H](OC)[C@H]1OC [FLUBENTYLOSIN]
- Ratio IC50 (Wolbachia [1]): >1000
- IC50 (Wolbachia [2]): 0.02 nM
- Ratio IC50 (Wolbachia [3]): >1000
